Data: US8846713B2, “Fused heterocyclic compounds as phosphodiesterases (PDEs) inhibitors” (Takeda Pharmaceutical Company Limited, priority 2010, dated 2014)
Where a name gives a salt, the structure may show the parent alone.

Columns and labels:
[1] = molecular target: T1, Human PDE10A enzyme (Homo sapiens, UniProt Q9Y233); assay: PDE enzyme inhibition, SPA (Scintillation Proximity Assay) with [3H]cGMP; format: biochemical; details: [3H]cGMP substrate; for inhibition at 1 µM: compound 1 μM, read-out: Percent inhibition (1 μM); for inhibition at 10 µM: compound 10 μM, read-out: Percent inhibition (10 μM); for inhibition at 0.1 µM: compound 0.1 μM, read-out: Percent inhibition (0.1 μM)
T1 construct: transfected with the full-length gene; His-tag; made in house; host or cells: Sf9 or COS-7 cells
Method: Human PDE10A enzyme was generated from Sf9 or COS-7 cells transfected with the full-length gene. Cloned enzyme was extracted from homogenized cell pellets. The extracted enzyme from sf9 cells was partially purified using His-tag affinity column. The enzyme was stored at −70° C. until use. PDE activity was measured using a SPA (Scintillation Proximity Assay) (GE Healthcare). To evaluate the inhibitory activity, 10 μL of serial diluted compounds were incubated with 20 μL of PDE enzyme in assay buffer (50 mM HEPES-NaOH, 8.3 mM MgCl2, 1.7 mM EGTA, 0.1% BSA (pH 7.4)) for 30 min. at room temperature. Final concentration of DMSO in the assay was 1 percent as compounds were tested in duplicate in 96-well half-area plates (Corning). To start the reaction, 10 μL of substrate [^3H] cGMP (25 or 50 nM; enclosed in SPA kits from GE Healthcare or purchased from PerkinElmer, respectively) was added for a final assay volume of 40 μL. After 60 min incubation at room temperature, yttrium SPA beads containing Zinc sulphate were added (20 μL at 6 mg/mL) to terminate the PDE reaction. After being settled for 60 min, assay plates were counted in a scintillation counter (PerkinElmer) to allow calculation of inhibition rate. Inhibition rate was calculated on the basis of 0% control wells with DMSO and 100% control wells without enzyme.

T1 sequence (Q9Y233 267-1055): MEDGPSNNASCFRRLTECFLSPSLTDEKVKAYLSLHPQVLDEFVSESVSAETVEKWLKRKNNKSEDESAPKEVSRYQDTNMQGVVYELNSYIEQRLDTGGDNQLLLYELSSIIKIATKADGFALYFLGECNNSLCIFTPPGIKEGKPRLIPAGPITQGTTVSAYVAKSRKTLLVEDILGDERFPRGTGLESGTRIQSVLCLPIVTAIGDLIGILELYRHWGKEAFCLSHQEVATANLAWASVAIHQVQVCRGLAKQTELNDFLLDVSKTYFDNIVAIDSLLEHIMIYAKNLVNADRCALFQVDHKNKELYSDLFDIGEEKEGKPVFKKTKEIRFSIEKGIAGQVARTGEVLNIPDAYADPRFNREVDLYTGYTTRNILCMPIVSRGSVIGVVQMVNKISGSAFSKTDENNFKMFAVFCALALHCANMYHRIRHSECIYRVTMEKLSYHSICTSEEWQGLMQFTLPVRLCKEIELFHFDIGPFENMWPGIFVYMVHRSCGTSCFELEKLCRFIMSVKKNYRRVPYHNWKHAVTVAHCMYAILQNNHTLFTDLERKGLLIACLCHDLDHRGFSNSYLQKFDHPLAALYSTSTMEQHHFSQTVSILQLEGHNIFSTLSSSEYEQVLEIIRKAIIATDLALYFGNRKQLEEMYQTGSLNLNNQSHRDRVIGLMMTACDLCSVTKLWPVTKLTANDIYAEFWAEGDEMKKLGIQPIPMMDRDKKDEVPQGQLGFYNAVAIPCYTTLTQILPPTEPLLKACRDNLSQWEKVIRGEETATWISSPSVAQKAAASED

Row | SMILES | inhibition at 1 µM [1] | inhibition at 10 µM [1] | melting point | inhibition at 0.1 µM [1]
1 | Cc1cnc2c(c1)n(C(C)C)c(=O)n2-c1ccc(Oc2nc3cccnc3n2C)cc1 [Example 122, 6-methyl-1-(1-methylethyl)-3-{4-[(3-methyl-3H-imidazo[4,5-b]pyridin-2-yl)oxy]phenyl}-1,3-dihydro-2H-imidazo[4,5-b]pyridin-2-one] | 109% | 107% | 252 °C | –
2 | Cc1ccnc2c1n(C(C)C)c(=O)n2-c1ccc(Oc2nc3cccnc3n2C)cc1 [Example 121, 7-methyl-1-(1-methylethyl)-3-{4-[(3-methyl-3H-imidazo[4,5-b]pyridin-2-yl)oxy]phenyl}-1,3-dihydro-2H-imidazo[4,5-b]pyridin-2-one] | 103% | 99% | 270 to 271 °C | –
3 | CCn1c(=O)n(-c2ccc(Oc3nc4cccnc4n3C)cc2)c2nccc(C(F)(F)F)c21 [Example 130, 1-ethyl-3-{4-[(3-methyl-3H-imidazo[4,5-b]pyridin-2-yl)oxy]phenyl}-7-(trifluoromethyl)-1,3-dihydro-2H-imidazo[4,5-b]pyridin-2-one] | 95% | 98% | 244 to 246 °C | –
4 | CCn1c(=O)n(-c2ccc(N3CCn4c3nc3cccnc34)cc2)c2ncccc21 [Example 134, 3-[4-(2,3-dihydro-1H-imidazo[2′,1′:2,3]imidazo[4,5-b]pyridin-1-yl)phenyl]-1-ethyl-1,3-dihydro-2H-imidazo[4,5-b]pyridin-2-one] | 101% | 104% | 255 to 256 °C | –
5 | CCn1c(=O)n(-c2ccc(Oc3nc4ccccc4n3C)cc2)c2ncc(Cl)cc21 [Example 106, 6-chloro-1-ethyl-3-{4-[(1-methyl-1H-benzimidazol-2-yl)oxy]phenyl}-1,3-dihydro-2H-imidazo[4,5-b]pyridin-2-one] | 103% | 102% | 208 to 210 °C | –
6 | CC1(C)C(=O)N(c2ccc(Oc3nc4ccccc4[nH]3)cc2)c2ncccc21 [Example 9, 1-[4-(1H-benzimidazol-2-yloxy)phenyl]-3,3-dimethyl-1,3-dihydro-2H-pyrrolo[2,3-b]pyridin-2-one dihydrochloride] | 99% | 99% | – | –
7 | CCn1c(=O)n(-c2ccc(Oc3nc4c(n3C)CCCC4)cc2)c2ncccc21 [Example 112, 1-ethyl-3-{4-[(1-methyl-4,5,6,7-tetrahydro-1H-benzimidazol-2-yl)oxy]phenyl}-1,3-dihydro-2H-imidazo[4,5-b]pyridin-2-one] | 99% | 98% | – | –
8 | CCn1c(=O)n(-c2ccc(Oc3nc4cccnc4n3C)cc2)c2ncc(OC)cc21 [Example 119, 1-ethyl-6-methoxy-3-{4-[(3-methyl-3H-imidazo[4,5-b]pyridin-2-yl)oxy]phenyl}-1,3-dihydro-2H-imidazo[4,5-b]pyridin-2-one] | 99% | 103% | 197 to 198 °C | –
9 | CC(C)n1c(=O)n(-c2ccc(Oc3nc4cccnc4n3C)cc2)c2ncccc21 [Example 98, 1-(1-methylethyl)-3-{4-[(3-methyl-3H-imidazo[4,5-b]pyridin-2-yl)oxy]phenyl}-1,3-dihydro-2H-imidazo[4,5-b]pyridin-2-one] | 99% | 101% | – | –
10 | CCn1c(=O)n(-c2ccc(Oc3nc4cccnc4n3C)cc2)c2ncc(F)cc21 [Example 133, 1-ethyl-6-fluoro-3-{4-[(3-methyl-3H-imidazo[4,5-b]pyridin-2-yl)oxy]phenyl}-1,3-dihydro-2H-imidazo[4,5-b]pyridin-2-one] | 104% | 101% | – | –
11 | O=c1[nH]c2cccnc2n1-c1ccc(Nc2nc3ccccc3o2)cc1 [Example 1, 3-[4-(1,3-benzoxazol-2-ylamino)phenyl]-1,3-dihydro-2H-imidazo[4,5-b]pyridin-2-one] | 98% | 100% | – | –
12 | CCn1c(=O)n(-c2ccc(Oc3nc4cccnc4n3C)cc2)c2nccc(C)c21 [Example 120, 1-ethyl-7-methyl-3-{4-[(3-methyl-3H-imidazo[4,5-b]pyridin-2-yl)oxy]phenyl}-1,3-dihydro-2H-imidazo[4,5-b]pyridin-2-one] | 109% | 106% | – | –
13 | CCn1c(=O)n(-c2ccc(Oc3nc4cccnc4n3C)cc2)c2nccc(COC(C)=O)c21 [Example 137, (1-ethyl-3-{4-[(3-methyl-3H-imidazo[4,5-b]pyridin-2-yl)oxy]phenyl}-2-oxo-2,3-dihydro-1H-imidazo[4,5-b]pyridin-7-yl)methyl acetate] | 88% | 98% | – | –
14 | Cn1c(Oc2ccc(-n3c(=O)n(C4CC4)c4cccnc43)cc2)nc2cccnc21 [Example 99, 1-cyclopropyl-3-{4-[(3-methyl-3H-imidazo[4,5-b]pyridin-2-yl)oxy]phenyl}-1,3-dihydro-2H-imidazo[4,5-b]pyridin-2-one] | 100% | 105% | – | –
15 | CCn1c(=O)n(-c2ccc(Nc3nc4ccc(F)cc4o3)cc2)c2ncccc21 [Example 27, 1-ethyl-3-{4-[(6-fluoro-1,3-benzoxazol-2-yl)amino]phenyl)-1,3-dihydro-2H-imidazo[4,5-b]pyridin-2-one] | – | – | – | 102%
16 | Cn1c(Oc2ccc(-n3c(=O)n(C4CC4)c4cccnc43)cc2)nc2ccccc21 [Example 103, 1-cyclopropyl-3-{4-[(1-methyl-1H-benzimidazol-2-yl)oxy]phenyl}-1,3-dihydro-2H-imidazo[4,5-b]pyridin-2-one] | 101% | 103% | – | –
17 | Cc1ccnc2c1n(C)c(=O)n2-c1ccc(Oc2nc3cccnc3n2C)cc1 [Example 135, 1,7-dimethyl-3-{4-[(3-methyl-3H-imidazo[4,5-b]pyridin-2-yl)oxy]phenyl}-1,3-dihydro-2H-imidazo[4,5-b]pyridin-2-one] | 94% | 99% | – | –
18 | CCn1c(=O)n(-c2ccc(Oc3nc4ccccc4n3C)cc2)c2ncc(C#N)cc21 [Example 109, 1-ethyl-3-{4-[(1-methyl-1H-benzimidazol-2-yl)oxy]phenyl}-2-oxo-2,3-dihydro-1H-imidazo[4,5-b]pyridine-6-carbonitrile] | 99% | 102% | – | –

Second part, the molecule after the results:

Row | inhibition at 1 µM [1] | inhibition at 10 µM [1] | melting point | inhibition at 0.1 µM [1] | SMILES
19 | 100% | 101% | 220 to 221 °C | – | CCn1c(=O)n(-c2ccc(-n3ccn4c5ccccc5nc34)cc2)c2ncccc21 [Example 65, 1-Ethyl-3-[4-(1H-imidazo[1,2-a]benzimidazol-1-yl)phenyl]-1,3-dihydro-2H-imidazo[4,5-b]pyridin-2-one]
20 | – | – | 184 to 186 °C | – | CCn1c(=O)n(-c2ccc(Oc3nc4ccccc4n3C)cc2)c2ncccc21 [Example 19, 1-ethyl-3-{4-[(1-methyl-1H-benzimidazol-2-yl)oxy]phenyl}-1,3-dihydro-2H-imidazo[4,5-b]pyridin-2-one]
21 | 99% | 101% | 242 to 243 °C | – | CCn1c(=O)n(-c2ccc(Oc3nc4ccccc4n3C)cc2)c2ncncc21 [Example 125, 7-ethyl-9-{4-[(1-methyl-1H-benzimidazol-2-yl)oxy]phenyl}-7,9-dihydro-8H-purin-8-one]
22 | 99% | 98% | – | – | CCn1c(=O)n(-c2ccc(Oc3cn4ccccc4n3)cc2)c2ncccc21 [Example 31, 1-ethyl-3-[4-(imidazo[1,2-a]pyridin-2-yloxy)phenyl]-1,3-dihydro-2H-imidazo[4,5-b]pyridin-2-one]
23 | 99% | 101% | – | – | CCn1c(=O)n(-c2ccc(Oc3nc4ccccc4n3CC(C)(C)O)cc2)c2ncccc21 [Example 40, 1-ethyl-3-(4-{[1-(2-hydroxy-2-methylpropyl)-1H-benzimidazol-2-yl]oxy}phenyl)-1,3-dihydro-2H-imidazo[4,5-b]pyridin-2-one]
24 | 98% | 101% | – | – | CCn1c(=O)n(-c2ccc(Oc3nc4cccnc4[nH]3)cc2)c2ncccc21 [Example 75, 1-ethyl-3-[4-(3H-imidazo[4,5-b]pyridin-2-yloxy)phenyl]-1,3-dihydro-2H-imidazo[4,5-b]pyridin-2-one]
25 | 100% | 97% | – | – | CCn1c(=O)n(-c2ccc(Oc3nc4ccncc4[nH]3)cc2)c2ncccc21 [Example 115, 1-ethyl-3-[4-(3H-imidazo[4,5-c]pyridin-2-yloxy)phenyl]-1,3-dihydro-2H-imidazo[4,5-b]pyridin-2-one]
26 | 95% | 99% | – | – | CCn1c(=O)n(-c2ccc(Oc3nc4ncccc4n3C)cc2)c2ncccc21 [Example 85, 1-ethyl-3-{4-[(1-methyl-1H-imidazo[4,5-b]pyridin-2-yl)oxy]phenyl}-1,3-dihydro-2H-imidazo[4,5-b]pyridin-2-one]
27 | – | – | – | 98% | CCn1c(=O)n(-c2ccc(Oc3nc4ccccc4[nH]3)cc2)c2ncccc21 [Example 8, 3-[4-(1H-benzimidazol-2-yloxy)phenyl]-1-ethyl-1,3-dihydro-2H-imidazo[4,5-b]pyridin-2-one hydrochloride]
